This is an account of results in PMC10933920, “Synthesis and Anti-Inflammatory Activity of Ferulic Acid-Sesquiterpene Lactone Hybrids” (Molecules, 2024).

For one data set, the system named is RAW264.7 cells. Briefly: CCK-8 cell viability (cytotoxicity) assay. In kind it is cell-based, Mouse. To be noted: RAW264.7 cells, CCK-8, 24 h incubation, means of three independent experiments. The protocol:
CCK-8 Cell Proliferation was used to confirm the non-cytotoxic dose of those derivatives in RAW264.7 cells. However, IC50 values of those compounds show visible difference in vitro (Table 1). Considering the safety of compound 6 in RAW264.7 cells, a follow-up experiment was carried out at the concentration of 2 μM.
The toxicity of those compounds was determined by the CCK-8 assay. RAW264.7 cells were seeded in a 96-well plate at a density of 2 × 10^5/mL and a volume of 100 μL/well. After incubation for 12 h at 37 °C, the cells were then incubated with compounds at concentrations of 1.25, 2.5, 5, 10, 20, 40 and 80 μM for 24 h, followed by the addition of 10 μL CCK-8 solution to each well, and the plates were further incubated for 2 h at 37 °C. The absorbance at a wavelength of 450 nm was measured using a microplate reader (Bio-Rad Laboratories, Inc., Hercules, CA, USA).

The subject of data set [1] is LPS-induced expression of IL-1β, IL-6 and iNOS in RAW264.7 cells. Nature of the data set: qRT-PCR of pro-inflammatory cytokine gene expression after LPS stimulation. In kind it is cell-based, Mouse. The following applies: RAW264.7 cells pre-treated 2 h, LPS 1 μg/mL 6 h, RT-PCR, 2 μM. From the text:
Inflammatory factors, including TNF-α, IL-1β, and IL-6, are involved in and accelerate inflammatory responses during inflammatory progression. In addition, iNOS (Nitric oxide synthase)-derived monocytes contribute to macrophage recruitment in the lung, and pulmonary-derived iNOS is detrimental during acute lung injury. Moreover, observations indicate that inhibiting iNOS can reduce inflammation in the early stages of the bleomycin model of acute lung injury. Therefore, the effective suppression of inflammation is considered an effective marker for the treatment of inflammation. To establish the efficacy of those compounds suppressing inflammatory procession, we tested pro-inflammatory cytokines that are released from the RAW264.7 cells upon LPS stimulation.
Total RNA was isolated using TRIzol reagent (Takara, Ōtsu-shi, Japan) and then transcribed into cDNA using a transcriptor cDNA synthesis kit (TransGen Biotech, Beijing, China) according to the manufacturer’s instructions. Quantitative real-time PCR was performed with TransStart® Green qPCR SuperMix (TransGen Biotech, China). The conditions for the real-time PCR reaction were as follows: 94 °C, 30 s; 94 °C, 5 s; 60 °C, 30 s; 40 cycles. The primers for this research are listed in Supplementary Material Table S1.
Figure 2 Anti-inflammation of 1–6 in RAW264.7 Cells. Expression of proinflammatory cytokines in RAW264.7 cells use RT-PCR. Cells (1 × 10^6 cells/well) were seeded into 6-well plates and then pro-treated with 1–6 for 2 h. Cells were then challenged with LPS (1 μg/mL) or medium alone for 6 h and Total RNA was extracted from cells with Trizol reagent. TNF-α: tumor necrosis factor-α; IL-1β:Interleukin-1β; L-6: Interleukin-6. Data were analyzed by One-Way ANOVA. *: p < 0.05; **: p < 0.01. ns: no significance.
(In general: In qPCR the cycle at which signal appears reflects the starting amount.)

A short description of data set [2]: Aqueous solubility measurement. Format: physicochemical. To be noted: for solubility: thermodynamic from solid, deionized water, pH = 7.0, at least in duplicate, read-out: Aqueous Solubility IC50. The protocol:
PTL, MCL and compounds 1–6 (0.1, 1, 10 mg) were dissolved in deionized water (pH = 7.0) until the solution was clear. The assays were measured at least in duplicate.

A word on the IC50: it is the point on the concentration scale where inhibition reaches its midpoint. Low values mean inhibition by little substance, high ones a need for much substance. In general, solubility refers to the concentration that dissolves in the medium under given conditions. In general, melting point refers to the temperature of the solid-liquid transition.

Structures are written as SMILES. In brackets after ≈: the same amount, converted by molar mass. Entries after “also recorded” stand apart in the source; their conditions may differ.

`C=C1C(=O)O[C@@H]2C3C(=C(C)CC[C@@H]12)CC[C@@]3(C)OC(=O)/C=C/c1ccc(O)c(OC)c1` (stereo partly drawn) [Compound 1, (3aS,9R,9bS)-6,9-dimethyl-3-methylene-2-oxo-2,3,3a,4,5,7,8,9,9a,9b-decahydroazuleno[4,5-b]furan-9-yl (E)-3-(4-hydroxy-3-methoxyphenyl)acrylate]: the IC50 in the data set with RAW264.7 cells (Mus musculus, RAW264.7, 24 h) was determined as 6.14 ± 0.09 µM. In data set [1], the “gene expression of pro-inflammatory cytokines (IL-1β, IL-6, iNOS)” value (“gene expression” below) was “reduce the gene expression levels of IL-1β, IL-6 and iNOS significantly; also recorded: comparable activities”. Moreover, the solubility in data set [2] is below 10 µg/mL.
In the data set with RAW264.7 cells, `COc1cc(/C=C/C(=O)O[C@]2(C)CCC3=C(C)CC[C@@H]4[C@H](OC(=O)[C@H]4CN(C)C)[C@H]32)ccc1O` [Compound 2, (3R,3aS,9R,9aS,9bS)-3-((dimethylamino)methyl)-6,9-dimethyl-2-oxo-2,3,3a,4,5,7,8,9,9a,9b-decahydroazuleno[4,5-b]furan-9-yl (E)-3-(4-hydroxy-3-methoxyphenyl)acrylate] registered an IC50 of 19.6 ± 0.21 µM. For the same compound, in data set [1], the “gene expression” value was “decreased activity compared with compound 1”. In addition, the solubility in data set [2] is below 10 µg/mL.
`C=C1C(=O)OC2C1CCC(COC(=O)C=Cc1ccc(O)c(OC)c1)=CCCC1(C)OC21` [Compound 3, ((1aR,7aS,10aS,10bS,E)-1a-methyl-8-methylene-9-oxo-1a,2,3,6,7,7a,8,9,10a,10b-decahydrooxireno[2′,3′:9,10]cyclodeca[1,2-b]furan-5-yl)methyl (E)-3-(4-hydroxy-3-methoxyphenyl)acrylate] had a melting point of 96 to 98 °C. Moreover, half-maximal inhibition in the data set with RAW264.7 cells (Mus musculus, RAW264.7, 24 h) (IC50) was put at 3.04 ± 0.08 µM. Further, in data set [1], the “gene expression” value is “reduce the gene expression levels of IL-1β, IL-6 and iNOS significantly; also recorded: comparable activities”. The solubility in data set [2] is below 10 µg/mL.
In turn, `COc1cc(C=CC(=O)NCC2=CCCC3(C)OC3C3OC(=O)C(CN(C)C)C3CC2)ccc1O` [Compound 4, (E)-N-(((1aR,7aS,8R,10aS,10bS,E)-8-((dimethylamino)methyl)-1a-methyl-9-oxo-1a,2,3,6,7,7a,8,9,10a,10b-decahydrooxireno[2′,3′:9,10]cyclodeca[1,2-b]furan-5-yl)methyl)-3-(4-hydroxy-3-methoxyphenyl)acrylamide] returned a melting point of 132 to 134 °C. This compound had an IC50 in the data set with RAW264.7 cells (Mus musculus, RAW264.7, 24 h) of 38.4 ± 1.14 µM. Also, the “gene expression” value in data set [1] is “neither the amide derivative of FA-PTL hybrid 4 or 5 (the prodrug of 2 containing citric acid) showed anti-inflammation activities”. Also, the solubility in data set [2] was below 10 µg/mL.
Compound `COc1cc(/C=C/C(=O)O[C@]2(C)CCC3=C(C)CC[C@@H]4[C@H](OC(=O)[C@H]4CN(C)C)[C@H]32)ccc1O.O=C(O)CC(O)(CC(=O)O)C(=O)O` [Compound 5, (3R,3aS,9R,9aS,9bS)-3-((dimethylamino)methyl)-6,9-dimethyl-2-oxo-2,3,3a,4,5,7,8,9,9a,9b-decahydroazuleno[4,5-b]furan-9-yl (E)-3-(4-hydroxy-3-methoxyphenyl)acrylate 2-hydroxypropane-1,2,3-tricarboxylate] registered an IC50 in the data set on RAW264.7 cells (Mus musculus, RAW264.7, 24 h) of 28.8 ± 0.21 µM. Moreover, the “gene expression” value in data set [1] is listed as “neither the amide derivative of FA-PTL hybrid 4 or 5 (the prodrug of 2 containing citric acid) showed anti-inflammation activities”. Also, in data set [2] (pH 7.0), the “water solubility (in words)” value was “significantly improved water solubility”. Further, in data set [2], the solubility was 2500 µg/mL.
`COc1cc(/C=C/C(=O)O)ccc1O` [FA, Ferulic acid]: the IC50 with RAW264.7 cells (Mus musculus, RAW264.7, 24 h) was above 100 µM.
In the data set with RAW264.7 cells (Mus musculus, RAW264.7, 24 h), `C=C1C(=O)O[C@H]2[C@H]1CCC(C)=C1CC[C@@](C)(O)[C@@H]12` [MCL, micheliolide, reference compound] registered an IC50 of 9.03 ± 0.16 µM. The solubility in data set [2] amounted to 50 µg/mL (≈ 201 µM).
The corresponding values for `C=C1C(=O)O[C@H]2[C@H]1CC/C(C)=C/CC[C@@]1(C)O[C@@H]21` [PTL, Parthenolide, reference compound] are 5.35 ± 0.06 µM and 50 µg/mL (≈ 201 µM).
